According to patent publication US6355799B1, “Substituted benzene compounds, process for their preparation, and herbicidal and defoliant compositions containing them” (ISK Americas Incorporated, priority 1997, dated 2002):

Key:
Format in all cases: in vivo
[1] = test system: redroot pigweed (Amaranthus retroflexus, AMARE); assay: Pre-emerge test, greenhouse herbicide activity screening; conditions: pre-emerge, 14 days after application, scale 0-100
In short: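 Rating: 0–100 visual injury, 14 DAA. Application: acetone, 187 l/ha, 15–1000 g ai/ha, flat-fan track sprayer with nozzle 40–45 cm above soil or canopy. Post-emerge runs used 0.25% v/v surfactant on 2–3 leaf plants.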

[2] = test system: field corn (Zea mays L., var. Dekalb 535, CORN); assay: Post-emerge test, crop safety; conditions: post-emerge, 14 days after application, rating scale 0-100
Text: (§1) A standard greenhouse herbicide activity screening system was used to evaluate the herbicidal efficacy and crop safety of these test compounds. Seven broadleaf weed species including redroot pigweed (Amaranthus retroflexus, AMARE, velvetleaf (Abutilon theophrasti, ABUTH), sicklepod (Cassia obtusifolia, CASOB), ivyleaf morningglory (Ipomoea hederacea, IPOHE), lambsquarters (Chenopodium album, CHEAL), common ragweed (Ambrosia artemisizfolia L., AMBEL), and cocklebur (Xanthium strumarium, XANST) were used as test species. Four grass weed species including green foxtail (Setaria viridis, SETVI), barnyardgrass (Echinochloa crus-galli, ECHCG), johnsongrass (Sorghum halepense, SORHA), and large crabgrass (Digitaria sanguinalis, DIGSA) were also used. In addition, three crop species, field corn (Zea mays L., var. Dekalb 535, CORN), soybean (Glycine max L., var. Pella 86, SOY), and is upland rice (Oryza sp., var. Tebonnet, RICE) were included.
(§2) All plants were grown in 10 cm square plastic pots which were filled with a sandy loam soil mix. For pre-emerge tests, seeds were planted one day prior to application of the test compounds. For post-emerge tests, seeds were planted 8-21 days prior to the test to allow emergence and good foliage development prior to application of the test substances. At the time of the post-emerge application, plants of all species were usually at the 2-3 leaf stage of development.
(§3) All test compounds Were dissolved in acetone and applied to the test units in a volume of 187 l /ha. Test materials were applied at rates ranging from 15 g ai/ha to 1000 g ai/ha using a track sprayer equipped with a TJ8001E even flow flat fan spray nozzle. Plants were arranged on a shelf so that the top of the canopy (post-emerge) or top of the soil surface (pre-emerge) was 40-45 cm below the nozzle. Pressurized air was used to force the test solution through the nozzle as it was mechanically advanced (via electrically driven chain drive) over the top of all test plants/pots. This application simulates a typical commercial field herbicide application.
(§4) In the post-emerge test, a commercial non-ionic surfactant was also included (0.25% v/v) to enhance wetting of the leaf surfaces of target plants. Immediately after application, test units of the pre-emerge applications were watered at the soil surface to incorporate the test materials. Subsequently, these test units were bottom-watered. Post-emerge test units were always bottom-watered.
(§5) At 14 days after application of the test materials, phytotoxicity ratings were recorded. A rating scale of 0-100 was used as previously described in Research Methods in Weed Science, 2nd edition, B. Truelove, Ed., Southern Weed Science Society, Auburn University, Auburn, Ala. 1977. Briefly, “0” corresponds to no damage and “100” corresponds to complete death of all plants in the test unit. This scale was used both to determine efficacy against weed species and damage to crop species. Herbicide activity data for various compounds of this invention, which are shown by compound No. in Tables 1-8, are shown in Tables 11 and 12.

[3] = test system: upland rice (Oryza sp., var. Tebonnet, RICE); assay: Post-emerge test, crop safety; conditions: post-emerge, 14 days after application, rating scale 0-100
Text: as §1, §2, §3, §4, §5

[4] = test system: lambsquarters (Chenopodium album, CHEAL); assay: Pre-emerge test, greenhouse herbicide activity screening; conditions: pre-emerge, 14 days after application, scale 0-100
Text: as §1, §2, §3, §4, §5

[5] = test system: sicklepod (Cassia obtusifolia, CASOB); assay: as above; conditions: pre-emerge, 14 days after application, scale 0-100
Text: as §1, §2, §3, §4, §5

[6] = test system: velvetleaf (Abutilon theophrasti, ABUTH); assay: as above; conditions: pre-emerge, 14 days after application, scale 0-100
Text: as §1, §2, §3, §4, §5

[7] = test system: ivyleaf morningglory (Ipomoea hederacea, IPOHE); assay: as above; conditions: pre-emerge, 14 days after application, scale 0-100
Text: as §1, §2, §3, §4, §5

[8] = test system: large crabgrass (Digitaria sanguinalis, DIGSA); assay: as above; conditions: pre-emerge, 14 days after application, scale 0-100
Text: as §1, §2, §3, §4, §5

[9] = test system: green foxtail (Setaria viridis, SETVI); assay: as above; conditions: pre-emerge, 14 days after application, scale 0-100
Text: as §1, §2, §3, §4, §5

[10] = test system: barnyardgrass (Echinochloa crus-galli, ECHCG); assay: as above; conditions: pre-emerge, 14 days after application, scale 0-100
Text: as §1, §2, §3, §4, §5

[11] = test system: field corn (Zea mays L., var. Dekalb 535, CORN); assay: Pre-emerge test, crop safety; conditions: pre-emerge, 14 days after application, scale 0-100
Text: as §1, §2, §3, §4, §5

[12] = test system: upland rice (Oryza sp., var. Tebonnet, RICE); assay: Pre-emerge test, crop safety; conditions: pre-emerge, 14 days after application, scale 0-100
Text: as §1, §2, §3, §4, §5

[13] = test system: lambsquarters (Chenopodium album, CHEAL); assay: Post-emerge test, greenhouse herbicide activity screening; conditions: post-emerge, 14 days after application, rating scale 0-100
Text: as §1, §2, §3, §4, §5

[14] = test system: sicklepod (Cassia obtusifolia, CASOB); assay: as above; conditions: post-emerge, 14 days after application, rating scale 0-100
Text: as §1, §2, §3, §4, §5

[15] = test system: velvetleaf (Abutilon theophrasti, ABUTH); assay: as above; conditions: post-emerge, 14 days after application, rating scale 0-100
Text: as §1, §2, §3, §4, §5

[16] = test system: ivyleaf morningglory (Ipomoea hederacea, IPOHE); assay: as above; conditions: post-emerge, 14 days after application, rating scale 0-100
Text: as §1, §2, §3, §4, §5

[17] = test system: large crabgrass (Digitaria sanguinalis, DIGSA); assay: as above; conditions: post-emerge, 14 days after application, rating scale 0-100
Text: as §1, §2, §3, §4, §5

[18] = test system: green foxtail (Setaria viridis, SETVI); assay: as above; conditions: post-emerge, 14 days after application, rating scale 0-100
Text: as §1, §2, §3, §4, §5

[19] = test system: redroot pigweed (Amaranthus retroflexus, AMARE); assay: as above; conditions: post-emerge, 14 days after application, rating scale 0-100
Text: as §1, §2, §3, §4, §5

[20] = test system: barnyardgrass (Echinochloa crus-galli, ECHCG); assay: as above; conditions: post-emerge, 14 days after application, rating scale 0-100
Text: as §1, §2, §3, §4, §5

Cn1c(C(F)(F)F)cc(=O)n(-c2ccc(C#N)cc2NC(=O)C=Cc2ccccc2)c1=O [2-141]
phytotoxicity rating AMARE ([1]; 63 g ai/ha): 100 | phytotoxicity rating AMARE ([1]; 250 g ai/ha): 100 | CORN phytotoxicity rating (crop damage) ([2]; 63 g ai/ha): 5 | CORN phytotoxicity rating (crop damage) ([2]; 250 g ai/ha): 10 | RICE phytotoxicity rating (crop damage) ([3]; 63 g ai/ha): 15 | RICE phytotoxicity rating (crop damage) ([3]; 250 g ai/ha): 65 | phytotoxicity rating CHEAL ([4]; 63 g ai/ha): 100 | phytotoxicity rating CHEAL ([4]; 250 g ai/ha): 100 | phytotoxicity rating CASOB ([5]; 63 g ai/ha): 30 | phytotoxicity rating CASOB ([5]; 250 g ai/ha): 90 | phytotoxicity rating ABUTH ([6]; 63 g ai/ha): 100 | phytotoxicity rating ABUTH ([6]; 250 g ai/ha): 100 | phytotoxicity rating IPOHE ([7]; 63 g ai/ha): 40 | phytotoxicity rating IPOHE ([7]; 250 g ai/ha): 100 | phytotoxicity rating DIGSA ([8]; 63 g ai/ha): 35 | phytotoxicity rating DIGSA ([8]; 250 g ai/ha): 70 | phytotoxicity rating SETVI ([9]; 63 g ai/ha): 30 | phytotoxicity rating SETVI ([9]; 250 g ai/ha): 70 | phytotoxicity rating ECHCG ([10]; 63 g ai/ha): 30 | phytotoxicity rating ECHCG ([10]; 250 g ai/ha): 95 | phytotoxicity rating CORN (crop damage) ([11]; 63 g ai/ha): 0 | phytotoxicity rating CORN (crop damage) ([11]; 250 g ai/ha): 45 | phytotoxicity rating RICE (crop damage) ([12]; 63 g ai/ha): 30 | phytotoxicity rating RICE (crop damage) ([12]; 250 g ai/ha): 70 | CHEAL phytotoxicity rating ([13]; 63 g ai/ha): 95 | CHEAL phytotoxicity rating ([13]; 250 g ai/ha): 100 | CASOB phytotoxicity rating ([14]; 63 g ai/ha): 50 | CASOB phytotoxicity rating ([14]; 250 g ai/ha): 95 | ABUTH phytotoxicity rating ([15]; 63 g ai/ha): 100 | ABUTH phytotoxicity rating ([15]; 250 g ai/ha): 100 | IPOHE phytotoxicity rating ([16]; 63 g ai/ha): 100 | IPOHE phytotoxicity rating ([16]; 250 g ai/ha): 95 | DIGSA phytotoxicity rating ([17]; 63 g ai/ha): 10 | DIGSA phytotoxicity rating ([17]; 250 g ai/ha): 30 | SETVI phytotoxicity rating ([18]; 63 g ai/ha): 20 | SETVI phytotoxicity rating ([18]; 250 g ai/ha): 40 | AMARE phytotoxicity rating ([19]; 63 g ai/ha): 95 | AMARE phytotoxicity rating ([19]; 250 g ai/ha): 95 | ECHCG phytotoxicity rating ([20]; 63 g ai/ha): 10 | ECHCG phytotoxicity rating ([20]; 250 g ai/ha): 30
